Data set [1] deals with DP IV. The data set is described as follows: DP IV-catalyzed hydrolysis, determination of Km. The class given is biochemical.
A short description of data set [2]: DP IV-catalyzed truncation of peptides, half-life by MALDI-TOF MS. It is filed as biochemical. Here is the method: (§1) In particular, the capability of purified DP IV from human, from porcine kidney, of recombinant human DP IV and the DP IV activity of the human serum to truncate the peptides of the GRF family were analyzed.
(§2) 250 single laser-shot spectra were accumulated.

Data set [3] has as its target T1, recombinant human DP IV, mutation R560A (Homo sapiens, UniProt P27487, R560A). The data set is described as follows: Ki in competition to standard substrate GP-4NA. It is filed as biochemical. Details: His6 (N); made in house; host or cells: Pichia pastoris X-33 (vector pPICαC, secreted). As to conditions: mu 15 DP IV (R560A), competition to GP-4NA. On the procedure:
(§3) In order to measure the inhibition constant Ki a photometric assay was used The peptides were measured as competitors of the standard substrate GP-4-Nitroanilide. Three different substrate concentrations (0.4 mM to 0.05 mM) were combined with 8 different competitor concentrations (0.5 mM to 2 μM). […] Experiments were carried out under standard conditions: 30° C. in pH 7.6 40 mM HEPES (Sigma-Aldrich) buffer. Nitroaniline production was monitored using a HTS 7000+ microplate reader (PerkinElmer, Überlingen, Germany).

Data set [4] deals with T2, recombinant human DP IV, mutation W629A (Homo sapiens, UniProt P27487, W629A). The data set is described as follows: Ki in competition to standard substrate GP-4NA. As to conditions: mu 16 DP IV (W629A), competition to GP-4NA. Details: His6 (N); made in house; host or cells: Pichia pastoris X-33 (vector pPICαC, secreted). The class given is biochemical. On the procedure: as §3
T2 sequence (P27487 37-766 W629A): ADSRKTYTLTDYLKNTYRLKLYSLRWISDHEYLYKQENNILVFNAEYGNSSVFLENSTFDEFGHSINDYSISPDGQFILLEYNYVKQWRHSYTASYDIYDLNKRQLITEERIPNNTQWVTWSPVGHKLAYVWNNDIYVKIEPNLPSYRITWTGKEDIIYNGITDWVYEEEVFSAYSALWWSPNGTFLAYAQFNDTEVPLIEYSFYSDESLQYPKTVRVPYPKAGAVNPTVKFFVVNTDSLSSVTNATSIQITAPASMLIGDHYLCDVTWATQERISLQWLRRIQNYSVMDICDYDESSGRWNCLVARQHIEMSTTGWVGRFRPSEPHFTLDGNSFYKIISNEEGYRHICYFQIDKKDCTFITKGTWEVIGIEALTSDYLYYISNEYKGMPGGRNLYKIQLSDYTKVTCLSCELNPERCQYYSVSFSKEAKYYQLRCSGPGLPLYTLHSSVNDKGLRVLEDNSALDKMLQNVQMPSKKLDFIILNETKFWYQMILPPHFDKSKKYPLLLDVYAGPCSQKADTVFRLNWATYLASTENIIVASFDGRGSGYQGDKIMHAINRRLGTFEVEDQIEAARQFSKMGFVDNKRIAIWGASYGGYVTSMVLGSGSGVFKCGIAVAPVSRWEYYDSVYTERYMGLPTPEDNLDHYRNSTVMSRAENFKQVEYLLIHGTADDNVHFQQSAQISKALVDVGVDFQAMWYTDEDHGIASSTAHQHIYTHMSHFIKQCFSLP

For data set [5], the target named is T3, recombinant human DP IV, wild type (Homo sapiens, UniProt P27487).
T3 construct: His6 (N); made in house; host or cells: Pichia pastoris X-33 (vector pPICαC, secreted into the medium)
T3 sequence (P27487 37-766): as the sequence (P27487 37-766 W629A) above, with A593W counted along it
Kind of data set: Ki in competition to standard substrate GP-4NA. It is filed as biochemical. As to conditions: rh wt DP IV, competition to GP-4NA. On the procedure: as §3

Data set [6] addresses T3, recombinant human DP IV, wild type. The data set is described as follows: Kinetic characterization of substrate hydrolysis (Km, kcat). The class given is biochemical. The settings on record: rh wt DP IV.
Data set [7] deals with T4, porcine kidney DP IV, wild type (Sus scrofa, UniProt P22411).
T4 construct: the DP IV-protein was released from the membrane by an 18 h autolysis step at 30° C; from tissue; host or cells: porcine kidney cortex
T4 sequence (P22411 38-766 limits assumed): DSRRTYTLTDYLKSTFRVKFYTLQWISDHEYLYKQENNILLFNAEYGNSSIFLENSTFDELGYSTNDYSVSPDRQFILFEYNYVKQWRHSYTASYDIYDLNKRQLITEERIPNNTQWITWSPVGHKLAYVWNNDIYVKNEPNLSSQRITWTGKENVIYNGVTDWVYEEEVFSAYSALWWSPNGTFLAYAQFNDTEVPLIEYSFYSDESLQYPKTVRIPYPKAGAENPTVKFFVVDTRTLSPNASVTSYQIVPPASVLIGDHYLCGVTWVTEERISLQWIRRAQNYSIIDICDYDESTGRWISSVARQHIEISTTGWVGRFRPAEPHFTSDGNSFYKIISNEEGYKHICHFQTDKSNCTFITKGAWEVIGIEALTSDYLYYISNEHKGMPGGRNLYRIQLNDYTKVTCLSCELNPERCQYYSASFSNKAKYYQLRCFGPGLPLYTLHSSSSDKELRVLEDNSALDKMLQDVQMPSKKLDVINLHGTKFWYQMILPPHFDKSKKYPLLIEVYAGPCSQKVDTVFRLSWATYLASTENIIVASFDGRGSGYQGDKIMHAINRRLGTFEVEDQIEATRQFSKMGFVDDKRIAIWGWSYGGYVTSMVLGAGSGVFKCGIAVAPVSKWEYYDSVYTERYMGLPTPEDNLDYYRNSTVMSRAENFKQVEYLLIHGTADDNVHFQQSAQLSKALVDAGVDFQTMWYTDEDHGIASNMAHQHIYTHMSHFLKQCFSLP
The data set is described as follows: Kinetic characterization of substrate hydrolysis (Km). It is filed as biochemical. As to conditions: p wt DP IV.

The target of data set [8] is T4, porcine kidney DP IV, wild type. Kind of data set: Ki in competition to standard substrate GP-4NA. The class given is biochemical. The settings on record: p wt DP IV; competition to GP-4NA. On the procedure:
(§4) In order to measure the inhibition constant Ki a photometric assay was used The peptides were measured as competitors of the standard substrate GP-4-Nitroanilide. Three different substrate concentrations (0.4 mM to 0.05 mM) were combined with 8 different competitor concentrations (0.5 mM to 2 μM). The reaction was started by addition of 3.5 nM DP IV. Experiments were carried out under standard conditions: 30° C. in pH 7.6 40 mM HEPES (Sigma-Aldrich) buffer. Nitroaniline production was monitored using a HTS 7000+ microplate reader (PerkinElmer, Überlingen, Germany). The Ki-values were calculated via non-linear regression using the enzyme kinetic program Grafit 4.016 (Erithacus Ltd, UK).

Data set [9] in a line: Stability in biological fluids (human serum or plasma).
Data set [10] deals with T2, recombinant human DP IV, mutation W629A. Kind of data set: Kinetic characterization of substrate hydrolysis (Km, kcat). The settings on record: mu 16 DP IV (W629A).
The target of data set [11] is T1, recombinant human DP IV, mutation R560A. The data set is described as above. The settings on record: mu 15 DP IV (R560A).
Data set [12] has as its system DP IV. The data set is described as follows: DP IV-catalyzed truncation of peptides, half-life by MALDI-TOF MS. The class given is biochemical. The settings on record: for hydrolysis by DP IV: GIP-fragments of different chain lengths. On the procedure:
as §1, §2

In data set [13] the test system is DP IV. The data set is described as follows: DP IV-catalyzed peptide truncation test with or without preincubation with effector peptide. It is filed as biochemical. As to conditions: for affinity of larger oligopeptides such as GIP, VIP, glucagon / binding and hydrolysis of small dipeptide substrates: DP IV preincubated with the peptide. On the procedure:
as §2
In order to investigate directly the influence of the test compounds TFTSDY, TFTDDY and H-Ser-D-Glu-Thr-Gly-D-Val-D-Lys-D-Val-OH on the DP IV-catalyzed peptide hydrolysis the MALDI-TOF assay was used.
As described before (determination of t1/2) DP IV and the test compounds were preincubated and the reaction was started by adding the enzyme/hexapeptide mixture to substrate/buffer mix. The control reaction mixture consisted of buffer, enzyme and substrate. From the curves of the first order exponential the initial rate (vi) for the control and the reversible inhibited reaction was calculated.

The target in data set [14] is DP IV. Kind of data set: Photometric Ki assay, competition with standard substrate GP-4-Nitroanilide. It is filed as biochemical. The settings on record: read-out: Ki, influence on GP-4-Nitroanilide hydrolysis. On the procedure:
as §4
For a reversible competitive inhibition is to assumed: […]

The mark [15] stands for this setting: preincubation with 160 μM TFTSDY.

This note sets out measurements from patent publication US7816325B2, “Secondary binding site of dipeptidyl peptidase IV (DP IV)” (OSI Pharmaceuticals, Inc., priority 2003, dated 2010).

Like-named read-outs stand apart in the source and are kept apart here. Where a SMILES comes first, the peptide text is derived from it. [ ]: non-standard residue; d: D form. The star is where a group is joined. AMC = Cc1cc(=O)oc2cc(N*)ccc12 Bounds are passed on as bounds.

T1 sequence (P27487 37-766 R560A): as the sequence (P27487 37-766 W629A) above, with R524A, A593W counted along it

Consider [Gly]^2-glucagon: glucagon analog, for which the Km with DP IV [1] came to 22 µM.

As to “His^1-Ser^2-NPY: NPY analog, full-length substrate”, the Km in the data set with DP IV [1] came to 68 µM.

Consider `C[C@H](NC(=O)[C@@H](N)Cc1ccc(O)cc1)C(=O)N[C@@H](CCC(=O)O)C(=O)NCC(=O)N[C@H](C(=O)N[C@@H](Cc1ccccc1)C(=O)O)[C@@H](C)O` [GIP1-6, YAEGTF] (H-YAEGTF-OH; N-terminus and C-terminus assumed), for which the half-life in data set [2] (bioactive peptides which are substrates for DP IV, read-out: Truncation half life) is < 0.125 h.

Regarding “V^2GIP(1-4): GIP-fragment analog, test compound of Table 5 (YAEGTF)”, the Ki entry in [3], in data set [4] and in data set [5] was “no inhibition” each time.

`C[C@H](NC(=O)[C@@H](N)Cc1ccc(O)cc1)C(=O)N[C@@H](CCC(=O)O)C(=O)N[C@@H](CO)C(=O)N[C@H](C(=O)N[C@@H](Cc1ccccc1)C(N)=O)[C@@H](C)O` [YAESTF amide] (H-YAESTF-NH2; N-terminus assumed): the Ki in data set [5] (read-out: Ki) stood at 35.1 nM.

Take Glucagon: the Km with DP IV [1] stood at 3.8 µM.

In the case of `CC(C)C[C@H](N)C(=O)N1CCSC1` [Leu-Thia-Fum], the Ki in data set [3] (read-out: Ki) was determined as 68.1 nM; in data set [4] (read-out: Ki) it was 65.7 nM; in [5] (read-out: Ki), 65.8 nM; in data set [8], 72.9 nM. Moreover, the Km in data set [6] turned out to be 42.6 µM; in [7], 59.8 µM.

Take `C[C@@H](O)[C@H](N)C(=O)N[C@@H](Cc1ccccc1)C(=O)N[C@H](C(=O)N[C@@H](CC(=O)O)C(=O)N[C@@H](CC(=O)O)C(=O)N[C@@H](Cc1ccc(O)cc1)C(=O)O)[C@@H](C)O` [TFTDDY] (H-TFTDDY-OH): the “stability in biological fluids” value in [9] was “instable”.

For `Cc1cc(=O)oc2cc(NC(=O)[C@H](CO)NC(=O)CN)ccc12` [Gly-Ser-AMC] (H-Gly-Ser-{AMC}), the Michaelis-Menten constant (Km) entry in data set [10] was “Not hydrolyzed”; in data set [6] it was 440 µM; in data set [11], “Not hydrolyzed”.

Consider V^2GIP1-6: GIP-fragment analog (YAEGTF), for which, in the data set with DP IV [12], the Truncation half life result is recorded as “no degradation” and the “hydrolysis by DP IV” value is given as “not hydrolyzed”.

Consider `C[C@@H](O)[C@H](NC(=O)CNC(=O)[C@H](CCC(=O)O)NC(=O)[C@H](CO)NC(=O)[C@@H](N)Cc1ccc(O)cc1)C(=O)N[C@@H](Cc1ccccc1)C(=O)O` [S^2GIP1-6] (H-YSEGTF-OH; N-terminus and C-terminus assumed), for which the Ki entry in [3], in data set [4] and in [5] was “no inhibition” each time. The compound also gave a half-life in data set [2] of 1.32 h. Besides, in the data set on DP IV [12], the “hydrolysis by DP IV” value is on record as “truncated”.

With `Cc1cc(=O)oc2cc(NC(=O)[C@@H]3CCCN3C(=O)CN)ccc12` [Gly-Pro-AMC, H-Gly-Pro-AMC] (H-Gly-Pro-{AMC}), the results for the Km in [10], in data set [6] and in data set [11] were 50.2 µM, 35.3 µM and 46.6 µM, respectively. The kcat is 1.44e+06 s⁻¹ in [10], 1.66e+06 s⁻¹ in [6] and 1e+06 s⁻¹ in [11].

For `CC(C)[C@@H](NC(=O)[C@@H](CCCCN)NC(=O)[C@H](NC(=O)CNC(=O)[C@@H](NC(=O)[C@@H](CCC(=O)O)NC(=O)[C@@H](N)CO)[C@@H](C)O)C(C)C)C(=O)O` [H-Ser-D-Glu-Thr-Gly-D-Val-D-Lys-D-Val-OH] (H-S[dE]TG[dV][dK][dV]-OH), in the data set on DP IV [13], the “affinity of larger oligopeptides such as GIP, VIP, glucagon” value is “considerably reduced”; the “binding and hydrolysis of small dipeptide substrates” value is “only slightly influenced”. For the same compound, in the data set with DP IV [13] (compared to control experiments without the heptapeptide), the “improving the substrate specificity of DP IV” value is given as “very effective”. Also, in [9], the “stability in biological fluids” value is “not enzymatically degraded”.

Consider `Cc1cc(=O)oc2cc(NC(=O)CNC(=O)[C@@H](N)Cc3c[nH]cn3)ccc12` [His-Gly-AMC] (H-His-Gly-{AMC}), for which the Km in the data set with DP IV [1] is 410 µM.

For `C[C@@H](O)[C@H](N)C(=O)N[C@@H](Cc1ccccc1)C(=O)N[C@H](C(=O)N[C@@H](CO)C(=O)N[C@@H](CC(=O)O)C(=O)N[C@@H](Cc1ccc(O)cc1)C(=O)O)[C@@H](C)O` [TFTSDY] (H-TFTSDY-OH; N-terminus and C-terminus assumed), the Ki result in data set [3] is “no inhibition”; in data set [4] it was “no inhibition”; in [5], “no inhibition”; at DP IV [14], 710000 nM. Moreover, the “half-lifes of GIP, Glucagon, PACAP-27 and PACAP-38” value in the data set with DP IV [13] (DP IV (porcine and recombinant human) catalyzed peptide truncation test, FIG. 16) is recorded as “prolongation”. Besides, in the data set with DP IV [13], the “affinity of larger oligopeptides such as GIP, VIP, glucagon” value was “considerably reduced”. For the same compound, in the data set on DP IV [13], the “binding and hydrolysis of small dipeptide substrates” value was “only slightly influenced”. Further, the “half-lives of GIP and glucagon in presence of DP IV” value in the data set on DP IV [13] (setting [15]) is listed as “prolonged”. Also, the “incubation of Rantes1-15 and DP IV with or without the hexapeptide” value with DP IV [13] (setting [15]) is on record as “No differences”. Also, the “stability in biological fluids” value in [9] is “instable”.

G^2GIP1-6: GIP-fragment analog (YAEGTF): in the data set on DP IV [12], the Truncation half life entry is listed as “no degradation” and the “hydrolysis by DP IV” value is on record as “not hydrolyzed”.
